From the supplement of paper PMC10477900 come the findings set out here.

Test [1] has as its system HCT116. In words: viability inhibition vs untreated; higher = more cytotoxic. As to conditions: 72 h.
In test [2] the test system is HCT116. As to conditions: 72 h. As for the experimental part:
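HCT116 control and MTA1-KO (CRISPR) HCT116 cells were seeded in 384-well plates (800 cells/well), treated 16 h later with 237 metabolism-related anticancer drugs at five doses (10 uM, 2 uM, 400 nM, 80 nM, 16 nM) for 72 h, two replicates; viability by CCK8. Values are % inhibition of viability relative to untreated cells, plus fitted IC50.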

The structures appear in SMILES notation.

As for `O=C(O)C[C@H](O)C[C@H](O)/C=C/c1c(C2CC2)nc2ccccc2c1-c1ccc(F)cc1` [Pitavastatin calcium], the viability inhibition was -24.4% in the test with HCT116 [1] (genotype: MTA1-KO, 16 nM); -25.7% in the test with HCT116 [1] (genotype: MTA1-KO, 80 nM); -30.7% in the test with HCT116 [1] (genotype: MTA1-KO, 400 nM); -23.8% with HCT116 [1] (genotype: MTA1-KO, 2000 nM); 31% with HCT116 [1] (genotype: MTA1-KO, 10000 nM); 11% in the test on HCT116 [1] (genotype: control, 16 nM). For the same molecule, the viability inhibition in the test on HCT116 [1] (genotype: control, 80 nM) was -0.547%; in the test with HCT116 [1] (genotype: control, 400 nM) it was -0.73%; with HCT116 [1] (genotype: control, 2000 nM) it was 5.9%; in the test on HCT116 [1] (genotype: control, 10000 nM), 75.5%. The IC50 with HCT116 [2] (genotype: MTA1-KO) was over 10 µM; with HCT116 [2] (genotype: control) it was 3.1 µM.
Take `CC[C@H](C)C(=O)O[C@H]1C[C@H](O)C=C2C=C[C@H](C)[C@H](CC[C@@H](O)C[C@@H](O)CC(=O)O)[C@H]21` [Pravastatin sodium]: the viability inhibition in the test on HCT116 [1] (genotype: MTA1-KO, 16 nM) is 9.21%; in the test with HCT116 [1] (genotype: MTA1-KO, 80 nM) it was -16.3%; in the test on HCT116 [1] (genotype: MTA1-KO, 400 nM), -12.8%; in the test on HCT116 [1] (genotype: MTA1-KO, 2000 nM), -12.2%; in the test with HCT116 [1] (genotype: MTA1-KO, 10000 nM), -1.55%; with HCT116 [1] (genotype: control, 16 nM), 10.2%. Also, the viability inhibition in the test on HCT116 [1] (genotype: control, 80 nM) was -15.3%; in the test on HCT116 [1] (genotype: control, 400 nM), -11.6%; in the test with HCT116 [1] (genotype: control, 2000 nM), -6.15%; in the test with HCT116 [1] (genotype: control, 10000 nM), 6.05%. Further, the IC50 in the test with HCT116 [2] (genotype: MTA1-KO) and with HCT116 [2] (genotype: control) was over 10 µM in each case.
Consider `N#Cc1c(O)c2c(-c3ccc(-c4ccccc4O)cc3)csc2[nH]c1=O`, for which the viability inhibition was 7.25% in the test on HCT116 [1] (genotype: MTA1-KO, 16 nM); 0.475% in the test with HCT116 [1] (genotype: MTA1-KO, 80 nM); 5.93% in the test with HCT116 [1] (genotype: MTA1-KO, 400 nM); 6.59% in the test with HCT116 [1] (genotype: MTA1-KO, 2000 nM); 21.8% with HCT116 [1] (genotype: MTA1-KO, 10000 nM); -9.79% with HCT116 [1] (genotype: control, 16 nM). Also, the viability inhibition in the test with HCT116 [1] (genotype: control, 80 nM) is -10.7%; in the test with HCT116 [1] (genotype: control, 400 nM) it was -8.84%; in the test with HCT116 [1] (genotype: control, 2000 nM) it was -17.7%; with HCT116 [1] (genotype: control, 10000 nM), 3.16%. Moreover, the IC50 in the test with HCT116 [2] (genotype: MTA1-KO) and in the test on HCT116 [2] (genotype: control) was over 10 µM each time.
Consider `COc1cccc(-c2ccc(NC(=O)C3=C(C(=O)O)CCC3)c(F)c2)c1` [Vidofludimus], for which the viability inhibition in the test with HCT116 [1] (genotype: MTA1-KO, 16 nM) amounted to 16.3%; in the test on HCT116 [1] (genotype: MTA1-KO, 80 nM), 14.4%; in the test on HCT116 [1] (genotype: MTA1-KO, 400 nM), 15.2%; in the test on HCT116 [1] (genotype: MTA1-KO, 2000 nM), 18.4%; in the test with HCT116 [1] (genotype: MTA1-KO, 10000 nM), 72.5%; in the test on HCT116 [1] (genotype: control, 16 nM), 14.5%. The viability inhibition amounted to 16.4% with HCT116 [1] (genotype: control, 80 nM); 19.6% with HCT116 [1] (genotype: control, 400 nM); 28.3% in the test with HCT116 [1] (genotype: control, 2000 nM); 60.9% in the test with HCT116 [1] (genotype: control, 10000 nM). Also, the concentration for half-maximal inhibition (IC50) in the test with HCT116 [2] (genotype: MTA1-KO) worked out at 7.17 µM; with HCT116 [2] (genotype: control) it was 8.85 µM.
Consider `Nc1ccc(/C=C/C(=O)NCc2cc3cc(-c4ccc(C(=O)N5CCC(F)(F)CC5)cc4)cc(-c4ccc(F)cc4)c3o2)cn1` [KPT9274], for which the viability inhibition in the test with HCT116 [1] (genotype: MTA1-KO, 16 nM) is -17.2%; with HCT116 [1] (genotype: MTA1-KO, 80 nM), -10%; with HCT116 [1] (genotype: MTA1-KO, 400 nM) it was -24%; with HCT116 [1] (genotype: MTA1-KO, 2000 nM) it was -17.1%; in the test on HCT116 [1] (genotype: MTA1-KO, 10000 nM), 8.44%; in the test with HCT116 [1] (genotype: control, 16 nM) it was 15.8%. Moreover, the viability inhibition in the test on HCT116 [1] (genotype: control, 80 nM) was -9.31%; with HCT116 [1] (genotype: control, 400 nM), 7.28%; in the test with HCT116 [1] (genotype: control, 2000 nM), 14.9%; with HCT116 [1] (genotype: control, 10000 nM), 13.4%. The IC50 with HCT116 [2] (genotype: MTA1-KO) and in the test with HCT116 [2] (genotype: control) was over 10 µM each time.
Regarding `Nc1nc2[nH]cc(CCc3ccc(C(=O)N[C@@H](CCC(=O)O)C(=O)O)cc3)c2c(=O)[nH]1` [Pemetrexed disodium], the viability inhibition with HCT116 [1] (genotype: MTA1-KO, 16 nM) was -3.16%; in the test with HCT116 [1] (genotype: MTA1-KO, 80 nM) it was 1.56%; in the test with HCT116 [1] (genotype: MTA1-KO, 400 nM), 17.8%; in the test on HCT116 [1] (genotype: MTA1-KO, 2000 nM), 28.6%; in the test with HCT116 [1] (genotype: MTA1-KO, 10000 nM), 32.9%; with HCT116 [1] (genotype: control, 16 nM), 21.1%. Besides, the viability inhibition in the test on HCT116 [1] (genotype: control, 80 nM) came out at 13.2%; in the test on HCT116 [1] (genotype: control, 400 nM), 10.5%; with HCT116 [1] (genotype: control, 2000 nM) it was 70.6%; in the test on HCT116 [1] (genotype: control, 10000 nM), 69.4%. The IC50 in the test with HCT116 [2] (genotype: MTA1-KO) is over 10 µM; in the test on HCT116 [2] (genotype: control) it was 1.18 µM.
For `N[C@@H](CCC(=O)N[C@@H](CS)C(=O)NCC(=O)O)C(=O)O` [Glutathione], the viability inhibition with HCT116 [1] (genotype: MTA1-KO, 16 nM) is -21.2%; in the test with HCT116 [1] (genotype: MTA1-KO, 80 nM), -27.6%; in the test with HCT116 [1] (genotype: MTA1-KO, 400 nM) it was -21.1%; in the test with HCT116 [1] (genotype: MTA1-KO, 2000 nM), -16.6%; in the test with HCT116 [1] (genotype: MTA1-KO, 10000 nM) it was -21.7%; with HCT116 [1] (genotype: control, 16 nM), 8.47%. Besides, the viability inhibition was 0.941% in the test on HCT116 [1] (genotype: control, 80 nM); -7.27% in the test with HCT116 [1] (genotype: control, 400 nM); 8.72% with HCT116 [1] (genotype: control, 2000 nM); 5.08% with HCT116 [1] (genotype: control, 10000 nM). Also, the IC50 with HCT116 [2] (genotype: MTA1-KO) and in the test with HCT116 [2] (genotype: control) was over 10 µM each time.
Take `COc1cccc2cc(-c3nc(C4CCC(C(=O)O)CC4)n4ncnc(N)c34)[nH]c12` (stereo not drawn) [OSI027]: the viability inhibition was 12.5% in the test with HCT116 [1] (genotype: MTA1-KO, 16 nM); 9.23% in the test on HCT116 [1] (genotype: MTA1-KO, 80 nM); 10.1% in the test on HCT116 [1] (genotype: MTA1-KO, 400 nM); -2.44% in the test on HCT116 [1] (genotype: MTA1-KO, 2000 nM); 2.62% with HCT116 [1] (genotype: MTA1-KO, 10000 nM); -12.5% in the test on HCT116 [1] (genotype: control, 16 nM). In addition, the viability inhibition in the test on HCT116 [1] (genotype: control, 80 nM) is -20.5%; in the test with HCT116 [1] (genotype: control, 400 nM), -21.1%; with HCT116 [1] (genotype: control, 2000 nM), 13.8%; in the test on HCT116 [1] (genotype: control, 10000 nM) it was 42.3%. The concentration for half-maximal inhibition (IC50) in the test with HCT116 [2] (genotype: MTA1-KO) and with HCT116 [2] (genotype: control) was over 10 µM throughout.
On to `CN(Cc1cnc2nc(N)nc(N)c2n1)c1ccc(C(=O)N[C@@H](CCC(=O)O)C(=O)O)cc1` [Methotrexate], for which the viability inhibition was 7.18% in the test with HCT116 [1] (genotype: MTA1-KO, 16 nM); -2.93% with HCT116 [1] (genotype: MTA1-KO, 80 nM); -6.45% with HCT116 [1] (genotype: MTA1-KO, 400 nM); -1.18% in the test on HCT116 [1] (genotype: MTA1-KO, 2000 nM); 33% in the test on HCT116 [1] (genotype: MTA1-KO, 10000 nM); 17.9% with HCT116 [1] (genotype: control, 16 nM). The viability inhibition in the test on HCT116 [1] (genotype: control, 80 nM) was 13.5%; in the test on HCT116 [1] (genotype: control, 400 nM), 16.6%; with HCT116 [1] (genotype: control, 2000 nM), 6.71%; in the test with HCT116 [1] (genotype: control, 10000 nM), 63.6%. Also, the IC50 in the test with HCT116 [2] (genotype: MTA1-KO) is over 10 µM; in the test with HCT116 [2] (genotype: control) it was 8.92 µM.

A word on the IC50: it is the point on the concentration scale where inhibition reaches its midpoint.
